This is an account of results in publication PMC8943889, “Synthetic studies with the brevicidine and laterocidine lipopeptide antibiotics including analogues with enhanced properties and in vivo efficacy” (Chemical Science, 2022).

Assay type in all cases: cell-based
The subject of one experiment is K. pneumoniae ATCC 11228. As to conditions: ATCC 11228, 16 h. As to the method: (§1) Minimum inhibitory concentrations (MICs) were determined by broth microdilution according to CLSI guidelines in triplicate. Blood agar plates were inoculated with glycerol stocks of E. coli ATCC 25922, E. coli MCR-1 (clinical isolate from Utrecht Medical Centre, NL), E. coli EQAS MCR-2 (clinical isolate from Wageningen University and Research, NL), K. pneumoniae ATCC 11228, K. pneumoniae ATCC 13883, K. pneumonia 2048 (clnical isolate from Vrije Universiteit Amsterdam Medical Centre, NL), K. pneumonia JS-123 (clinical isolate from Utrecht Medical […]
(§2) (clinical isolate from Rijksinstituut voor Volksgezondheid en Milieu, NL), A. baumannii MDR (clinical isolate from Vrije Universiteit Amsterdam Medical Centre, NL), P. aeruginosa ATCC 27853, P. aeruginosa PAO1, P. aeruginosa NRZ-03961 (Reference strain from Das Nationale Referenzzentrum für gramnegative Krankenhauserreger, DE), P. aeruginosa M-120 (clinical isolate from Leiden University Medical Centre, NL) and S. aureus USA300 (clinical isolate from Texas Children's Hospital, USA). E. coli 25922 MCR1 was grown on LB agar supplemented with kanamycin. The inoculated agar plates were then incubated for 16 h at 37°C . Individually grown colonies were subsequently used to inoculate 3 mL aliquots of TSB that were then incubated at 37°C with shaking at 220 rpm. In parallel, the lipopeptide antibiotics to be assessed were serially diluted with Mueller-Hinton broth (MHB) in polypropylene 96-well plates (50 µL in each well).
(§3) Once the OD600 of the bacterial suspensions reached 0.5, the bacteria were diluted with MHB (final concentration 2 × 10^5 CFU mL−1) and added to the microplates containing the test compounds (50 µL to each well, final volume: 100 µL). The well-plates were sealed with an adhesive membrane and after 16 h of incubation at 37°C with shaking at 220 rpm the wells were visually inspected for bacterial growth. MIC values reported are based on three technical replicates and defined as the lowest concentration of the compound that prevented visible growth of bacteria. […]

In the next experiment the test system is E. coli ATCC 25922. To be noted: ATCC 25922, 16 h. As to the method:
as §1, §2, §3

The subject of the next experiment is A. baumannii ATCC 17961. As to conditions: ATCC 17961, 16 h. As to the method:
as §1, §2, §3

The test system of the next experiment is K. pneumoniae ATCC 13883. As to conditions: ATCC 13883, 16 h. As to the method:
as §1, §2, §3

Another experiment has as its system K. pneumoniae JS-123. As to conditions: JS-123, 16 h. As to the method:
as §1, §2, §3

The next experiment has as its system A. baumannii 2018-006. As to conditions: 2018-006, 16 h. The method, then: as §1, §2, §3
A further experiment concerns A. baumannii ATCC 17978. To be noted: ATCC 17978, 16 h. As to the method:
as §1, §2, §3

The test system of a further experiment is P. aeruginosa NRZ-03961. To be noted: NRZ-03961, 16 h. As to the method: as §1, §2, §3
The next experiment has as its system P. aeruginosa PAO1. As to conditions: PAO1, 16 h. The method, then:
as §1, §2, §3

In the next experiment the test system is E. coli ATCC 25922 MCR-1. As to conditions: Ec ATCC 25922 MCR-1; broth microdilution (CLSI), MHB, 16 h 37 °C, three technical replicates. As to the method:
as §1, §2, §3

For a further experiment, the system named is P. aeruginosa M-120. To be noted: M-120, 16 h. The method, then: as §1, §2, §3
The subject of a further experiment is S. aureus USA300. To be noted: USA300, 16 h. The method, then:
as §1, §2, §3

The test system of the next experiment is P. aeruginosa ATCC 27853. As to conditions: ATCC 27853, 16 h. As to the method: as §1, §2, §3
The next experiment concerns K. pneumoniae 2048. As to conditions: 2048, 16 h. As to the method: as §1, §2, §3
Experiment [1] relates to E. coli MCR-1 (clinical isolate). To be noted: Ec MCR-1; broth microdilution (CLSI), MHB, 16 h 37 °C, three technical replicates. As to the method: as §1, §2, §3
A further experiment has as its system A. baumannii MDR. As to conditions: Ab MDR; broth microdilution (CLSI), MHB, 16 h 37 °C, three technical replicates. The method, then:
as §1, §2, §3

The next experiment relates to E. coli EQAS MCR-2. As to conditions: Ec EQAS MCR-2; broth microdilution (CLSI), MHB, 16 h 37 °C, three technical replicates. The method, then: as §1, §2, §3

Converted amounts (≈) assume the structure as drawn. Positions of bridges follow the written chain, without caps; N, C: chain ends. Non-standard residues stand in square brackets, D forms with d. Residues, ends and D or L forms follow the SMILES beside them. *: point of attachment. Octanoyl(7-Me) = CC(C)CCCCCC(=O)*; dOrn = NCCC[C@@H](N)C(=O)O; Orn = NCCC[C@H](N)C(=O)O Some results are limits rather than exact numbers.

With `CCC(C)CCC(=O)N[C@H](CC(N)=O)C(=O)N[C@H](Cc1ccc(O)cc1)C(=O)N[C@H](Cc1c[nH]c2ccccc12)C(=O)N[C@H](CCCN)C(=O)N[C@@H](CCCN)C(=O)NCC(=O)N[C@H](CCCN)C(=O)N[C@@H](Cc1c[nH]c2ccccc12)C(=O)N[C@@H]1C(=O)N[C@@H]([C@@H](C)CC)C(=O)NCC(=O)N[C@@H](CO)C(=O)N[C@@H]1C` (some centres unmarked) [MeDap9-Brev (7)], the MIC against K. pneumoniae ATCC 11228 was 8 mg/L (≈ 5.27 µM); against E. coli ATCC 25922, 16 mg/L (≈ 10.5 µM); against A. baumannii ATCC 17961, 8 to 16 mg/L; with K. pneumoniae ATCC 13883, 8 mg/L (≈ 5.27 µM); in the experiment with K. pneumoniae JS-123 it was 4 to 8 mg/L; with A. baumannii 2018-006, 16 mg/L (≈ 10.5 µM). Besides, the minimal inhibitory concentration (MIC) in the experiment on A. baumannii ATCC 17978 is 16 mg/L (≈ 10.5 µM); with P. aeruginosa NRZ-03961, 8 mg/L (≈ 5.27 µM); in the experiment with P. aeruginosa PAO1, 4 mg/L (≈ 2.63 µM); against E. coli ATCC 25922 MCR-1 it was 8 mg/L (≈ 5.27 µM); in the experiment on P. aeruginosa M-120 it was 4 mg/L (≈ 2.63 µM); in the experiment on S. aureus USA300, greater than 64 mg/L. For the same compound, the MIC is 2 to 4 mg/L in the experiment on P. aeruginosa ATCC 27853, 8 to 16 mg/L against K. pneumoniae 2048 and 8 mg/L (≈ 5.27 µM) in [1].

As to `CC[C@H](C)[C@@H]1NC(=O)[C@@H](NC(=O)[C@H](Cc2c[nH]c3ccccc23)NC(=O)[C@@H](CCCN)NC(=O)CNC(=O)[C@H](CCCN)NC(=O)[C@@H](CCCN)NC(=O)[C@@H](Cc2c[nH]c3ccccc23)NC(=O)[C@@H](Cc2ccc(O)cc2)NC(=O)[C@@H](CO)NC(=O)CCCCCC(C)C)COC(=O)CNC(=O)CNC(=O)[C@H](CC(N)=O)NC1=O` [Ser9-Lat (4), Ser9-Laterocidine] ({Octanoyl(7-Me)}-[dS][dY][dW][dOrn][Orn]G[dOrn]WSINGG; ester 9-C), the MIC with K. pneumoniae ATCC 11228 was 1 to 2 mg/L; with E. coli ATCC 25922, 0.5 mg/L (≈ 0.314 µM); against A. baumannii ATCC 17961, 4 mg/L (≈ 2.51 µM); in the experiment on K. pneumoniae ATCC 13883 it was 1 to 2 mg/L; against K. pneumoniae JS-123 it was 0.5 mg/L (≈ 0.314 µM); against A. baumannii 2018-006 it was 4 mg/L (≈ 2.51 µM). For the same compound, the MIC in the experiment on A. baumannii ATCC 17978 was 2 mg/L (≈ 1.26 µM); in the experiment with P. aeruginosa NRZ-03961, 1 to 2 mg/L; with P. aeruginosa PAO1 it was 2 mg/L (≈ 1.26 µM); in the experiment on P. aeruginosa M-120, 1 mg/L (≈ 0.629 µM); in the experiment with S. aureus USA300, greater than 64 mg/L; in the experiment on P. aeruginosa ATCC 27853 it was 0.5 to 1 mg/L. This compound also gave an MIC with K. pneumoniae 2048 of 2 mg/L (≈ 1.26 µM).

Take `CCC(C)CCC(=O)N[C@H](CC(N)=O)C(=O)N[C@H](Cc1ccc(O)cc1)C(=O)N[C@H](Cc1c[nH]c2ccccc12)C(=O)N[C@H](CCCN)C(=O)N[C@@H](CCCN)C(=O)NCC(=O)N[C@H](CCCN)C(=O)N[C@@H](Cc1c[nH]c2ccccc12)C(=O)N[C@@H]1C(=O)N[C@@H]([C@@H](C)CC)C(=O)NCC(=O)N[C@@H](CO)C(=O)O[C@@H]1C` (some centres unmarked) [Brev (1), brevicidine]: the MIC was 4 mg/L (≈ 2.63 µM) in the experiment with A. baumannii MDR; 1 to 2 mg/L with K. pneumoniae ATCC 11228; 1 to 2 mg/L with E. coli ATCC 25922; 2 to 4 mg/L against A. baumannii ATCC 17961; 2 mg/L (≈ 1.32 µM) in the experiment on E. coli EQAS MCR-2; 1 mg/L (≈ 0.658 µM) in the experiment on K. pneumoniae ATCC 13883. For the same compound, the MIC worked out at 1 mg/L (≈ 0.658 µM) in the experiment with K. pneumoniae JS-123; 4 mg/L (≈ 2.63 µM) against A. baumannii 2018-006; 4 mg/L (≈ 2.63 µM) in the experiment with A. baumannii ATCC 17978; 2 mg/L (≈ 1.32 µM) against P. aeruginosa NRZ-03961; 2 mg/L (≈ 1.32 µM) in the experiment on P. aeruginosa PAO1; 2 mg/L (≈ 1.32 µM) against E. coli ATCC 25922 MCR-1. The MIC in the experiment on P. aeruginosa M-120 is 2 to 4 mg/L; against S. aureus USA300 it was 64 mg/L (≈ 42.1 µM); with P. aeruginosa ATCC 27853 it was no more than 0.5 mg/L; with K. pneumoniae 2048 it was 1 to 2 mg/L.
